Patent US10316049B2, “Tank-binding kinase inhibitor compounds” (Gilead Sciences, Inc., priority 2015, dated 2019)
pIC50: −log10 of the molar value.

How the values were obtained:
IKKε = biological target: T1, IKKε (Homo sapiens, UniProt Q14164); experiment: TR-FRET enzymatic activity assay, IKKε; type: biochemical; conditions: read-out: IKKϵ IC50; note: full length recombinant IKKε at 0.3 nM
T1 construct: TBK1 and IKKε were expressed and purified as full length recombinant proteins; made in house
T1 sequence (Q14164 1-716): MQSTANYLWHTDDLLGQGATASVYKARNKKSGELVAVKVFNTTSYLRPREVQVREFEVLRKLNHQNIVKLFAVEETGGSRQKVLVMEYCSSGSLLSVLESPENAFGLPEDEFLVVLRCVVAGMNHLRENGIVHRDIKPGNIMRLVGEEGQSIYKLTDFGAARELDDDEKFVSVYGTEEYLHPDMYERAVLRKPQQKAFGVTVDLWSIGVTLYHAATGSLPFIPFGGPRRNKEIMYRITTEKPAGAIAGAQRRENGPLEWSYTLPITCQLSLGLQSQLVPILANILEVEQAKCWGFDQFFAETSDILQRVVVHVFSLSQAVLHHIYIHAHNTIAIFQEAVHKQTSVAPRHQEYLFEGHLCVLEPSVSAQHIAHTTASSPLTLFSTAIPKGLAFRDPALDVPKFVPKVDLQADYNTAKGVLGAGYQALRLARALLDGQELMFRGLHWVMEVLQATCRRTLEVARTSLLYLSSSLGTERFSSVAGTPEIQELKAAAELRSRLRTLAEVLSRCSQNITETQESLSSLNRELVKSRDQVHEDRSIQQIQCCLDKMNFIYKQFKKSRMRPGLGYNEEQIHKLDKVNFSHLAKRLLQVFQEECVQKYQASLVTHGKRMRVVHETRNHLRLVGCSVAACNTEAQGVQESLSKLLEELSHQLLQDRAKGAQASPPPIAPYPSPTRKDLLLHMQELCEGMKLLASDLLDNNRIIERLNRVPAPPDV
Method in brief: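 Full-length recombinant IKKε phosphorylated a biotinylated Ser/Thr peptide for 240 min at 25 °C; EDTA stop. Phospho-peptide detected by TR-FRET with streptavidin-XL665 (125 nM) and Eu-cryptate anti-phospho antibody. Normalised to staurosporine and DMSO controls; IC50 from four-parameter fit, geometric mean of ≥4 runs.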

TBK1 = biological target: T2, TBK1 (Homo sapiens, UniProt Q9UHD2); experiment: TR-FRET enzymatic activity assay, TBK1; type: biochemical; note: full length recombinant TBK1 at 2.5 nM
T2 construct: TBK1 and IKKε were expressed and purified as full length recombinant proteins; made in house
T2 sequence (Q9UHD2 1-729): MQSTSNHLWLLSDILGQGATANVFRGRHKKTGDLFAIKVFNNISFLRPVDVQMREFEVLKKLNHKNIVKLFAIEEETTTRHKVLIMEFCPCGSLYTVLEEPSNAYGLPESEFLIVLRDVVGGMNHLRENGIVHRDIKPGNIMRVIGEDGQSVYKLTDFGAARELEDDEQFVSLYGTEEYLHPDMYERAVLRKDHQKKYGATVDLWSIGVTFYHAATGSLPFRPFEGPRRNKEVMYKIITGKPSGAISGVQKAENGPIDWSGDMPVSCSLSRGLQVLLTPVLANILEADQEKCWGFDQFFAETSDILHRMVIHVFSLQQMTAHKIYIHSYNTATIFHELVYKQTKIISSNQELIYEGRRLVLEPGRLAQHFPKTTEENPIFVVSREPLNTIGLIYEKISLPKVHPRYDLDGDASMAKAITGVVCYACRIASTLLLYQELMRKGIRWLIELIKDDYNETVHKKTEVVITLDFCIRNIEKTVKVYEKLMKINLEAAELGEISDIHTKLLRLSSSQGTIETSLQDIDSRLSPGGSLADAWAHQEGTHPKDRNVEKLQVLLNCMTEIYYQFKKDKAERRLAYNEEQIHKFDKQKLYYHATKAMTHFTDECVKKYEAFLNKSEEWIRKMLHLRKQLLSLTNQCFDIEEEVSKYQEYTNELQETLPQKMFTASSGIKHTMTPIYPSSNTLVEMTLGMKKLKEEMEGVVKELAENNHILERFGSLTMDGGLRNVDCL
Method in brief: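 Full-length recombinant enzymes phosphorylated a biotinylated Ser/Thr peptide for 240 min at 25 °C, stopped with EDTA. Phosphopeptide detected by TR-FRET (streptavidin XL665, Eu-cryptate anti-phospho antibody). IC50 from four-parameter fits normalized to 1 μM staurosporine and DMSO controls, as geometric means of at least four determinations.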

SMILES | pIC50 (IKKε) | pIC50 (TBK1)
C[C@H]1CCCN1c1ccc(-c2ccnc(NC(=O)C3CC3)c2)cc1C#N [Example 92, (S)—N-(4-(3-cyano-4-(2-methylpyrrolidin-1-yl)phenyl)pyridin-2-yl)cyclopropanecarboxamide] | 6.89 | 7.69
N#Cc1cc(-c2ccnc(NC(=O)C3CC3)c2)ccc1N1CCC[C@H]1CO [Example 93, (S)—N-(4-(3-cyano-4-(2-(hydroxymethyl)pyrrolidin-1-yl)phenyl)pyridin-2-yl)cyclopropanecarboxamide] | 6.29 | 7.15
N#Cc1cc(-c2ccnc(NC(=O)C3CC3)c2)ccc1N1CCC[C@H]1C(=O)O [Example 26, (2-Cyano-4-(2-(cyclopropanecarboxamido)pyridin-4-yl)phenyl)-L-proline] | < 6.00 | 6.12
C[C@@H]1CCCN1c1ccc(-c2ccnc(NC(=O)C3CC3)c2)cc1C#N [Example 96, (R)—N-(4-(3-cyano-4-(2-methylpyrrolidin-1-yl)phenyl)pyridin-2-yl)cyclopropanecarboxamide] | 6.64 | 7.48
N#Cc1cc(-c2ccnc(NC(=O)[C@@H]3C[C@H]3C(=O)N3CC(O)C3)c2)ccc1OC1CCOCC1 (relative stereo) [Example 45, (1,2-trans)-N-(4-(3-cyano-4-((tetrahydro-2H-pyran-4-yl)oxy)phenyl)pyridin-2-yl)-2-(3-hydroxyazetidine-1-carbonyl)cyclopropane-1-carboxamide] | 6.37 | 6.35
N#Cc1cc(-c2ccnc(NC(=O)[C@H]3C[C@@H]3c3cccc(F)c3)c2)ccc1OC1CCOCC1 (relative stereo) [Example 119, (1,2-Trans)-N-(4-(3-cyano-4-((tetrahydro-2H-pyran-4-yl)oxy)phenyl)pyridin-2-yl)-2-(3-fluorophenyl)cyclopropane-1-carboxamide] | < 6.00 | 7.00
Cc1cc([C@@H]2C[C@H]2C(=O)Nc2cc(-c3ccc(OC4CCOCC4)c(C#N)c3)ccn2)on1 (relative stereo) [Example 47, (1,2-trans)-N-(4-(3-cyano-4-((tetrahydro-2H-pyran-4-yl)oxy)phenyl)pyridin-2-yl)-2-(3-methylisoxazol-5-yl)cyclopropane-1-carboxamide] | 6.57 | 7.53
CO[C@H]1CCN(c2ccc(-c3ccnc(NC(=O)C4CC4)c3)cc2C#N)C1 [Example 94, (S)—N-(4-(3-cyano-4-(3-methoxypyrrolidin-1-yl)phenyl)pyridin-2-yl)cyclopropanecarboxamide] | 6.71 | 6.92
N#Cc1cc(-c2cc(NC(=O)C3CC3)ncn2)ccc1O[C@@H]1CCN(C(=O)CO)CC1(F)F [Example 110, (R)—N-(6-(3-cyano-4-((3,3-difluoro-1-(2-hydroxyacetyl)piperidin-4-yl)oxy)phenyl)pyrimidin-4-yl)cyclopropanecarboxamide] | 6.13 | 6.50
CCC[C@H]1C[C@@H]1C(=O)Nc1cc(-c2ccc(OC3CCOCC3)c(C#N)c2)ccn1 (relative stereo) [Example 91, (1,2-trans)-N-(4-(3-cyano-4-((tetrahydro-2H-pyran-4-yl)oxy)phenyl)pyridin-2-yl)-2-propylcyclopropane-1-carboxamide] | 6.57 | 7.36
COc1ccc([C@@H]2C[C@H]2C(=O)Nc2cc(-c3ccc(O[C@H]4CCN(C(=O)CO)CC4(F)F)c(C#N)c3)ncn2)cn1 [Example 113, (1R,2R)—N-(6-(3-cyano-4-(((S)-3,3-difluoro-1-(2-hydroxyacetyl)piperidin-4-yl)oxy)phenyl)pyrimidin-4-yl)-2-(6-methoxypyridin-3-yl)cyclopropane-1-carboxamide] | < 6.00 | 8.09
